Data reported in US20090305993A1, “METHODS AND COMPOSITION FOR THE TREATMENT OF GASTROINTESTINAL DISORDERS” (IRONWOOD PHARMACEUTICALS, INC., priority 2006, published 2009).
Where a SMILES comes first, the peptide text is derived from it. Bridges are numbered along the chain shown (N, C = ends).

Key:
Male Wistar rats = assay: TNBS visceral hypersensitivity rat model (colorectal distension, EMG); format: in vivo; conditions: 0.3 μg/kg and 3 μg/kg, after TNBS, FIG. 7a
Description: Male Wistar rats (220-250 g) were premedicated with 0.5 mg/kg of acepromazine injected intraperitoneally (IP) and anesthetized by intramuscular administration of 100 mg/kg of ketamine. Pairs of nichrome wire electrodes (60 cm in length and 80 μm in diameter) were implanted in the striated muscle of the abdomen, 2 cm laterally from the white line. The free ends of electrodes were exteriorized on the back of the neck and protected by a plastic tube attached to the skin. Electromyographic (EMG) recordings were started 5 days after surgery. Electrical activity of abdominal striated muscle was recorded with an electroencephalograph machine (Mini VIII, Alvar, Paris, France) using a short time constant (0.03 sec.) to remove low-frequency signals (<3 Hz).
Ten days post surgical implantation, trinitrobenzenesulphonic acid (TNBS) was administered to induce rectal inflammation. TNBS (80 mg kg^−1 in 0.3 ml 50% ethanol) was administered intrarectally through a silicone rubber catheter introduced at 3 cm from the anus under light diethyl-ether anesthesia, as described (Morteau et al. 1994 Dig Dis Sci 39:1239). […] Evaluation of rectal sensitivity, as measured by EMG, was performed before (1-2 days) and 3 days following rectal instillation of TNBS.
The number of spike bursts that corresponds to abdominal contractions was determined per 5 min periods. […]

adult male Wistar rats = assay: basal visceral nociception (visceromotor response to CRD); format: in vivo, rat
Description: The effect of SEQ ID NO:3 on basal visceral nociception in a model of water avoidance stress-induced visceral hyperalgesia in adult male Wistar rats was tested. The stress involved confining rats to a platform surrounded by water for a period of 1 hour and then measuring their visceromotor response to colonic distension using electromyography (EMG).
Electrode leads were then tunneled subcutaneously and externalized laterally for future access. Following surgery, rats were housed in pairs and allowed to recover for at least 7 days. On the day of the experiment, animals were lightly anesthetized with halothane, and a lubricated latex balloon (6 cm) was inserted intra-anally into the descending colon. Animals were allowed to recover for 30 minutes, and colorectal distension (CRD) was initiated. The CRD procedure consisted of graded intensities of phasic CRD (10, 20, 40, 60 mmHg; 20 s duration; 4 min inter-stimulus interval). Visceromotor response (VMR) to CRD was quantified by measuring EMG activity. […] Animals were allowed 1 hour recovery and then SEQ ID NO:3 or vehicle was orally administered. At 1 hour following administration of SEQ ID NO:3 or vehicle CRD was repeated. […] The mean value (+/−SEM) of in vehicle and SEQ ID NO:3 treated groups (n=7 for each group) is graphically depicted in FIG. 7e.

[1] = stability in simulated gastric fluid (SGF) pH 1; format: in vitro ADME; conditions: pH 1, 37° C., up to 3 h
Description: All samples were analyzed by LC/MS
The reference control sample was diluted 10-fold (1000 μL volume) in distilled water for a final concentration of 10 μM and chilled on ice. At each time point, samples were diluted 10-fold (1000 μL volume) in distilled water for an expected concentration of 10 μM, and chilled on ice, until analysis.

Female CD rats = assay: rat model of postoperative ileus; format: in vivo; conditions: oral 10 μg/kg, after abdominal surgery, FIG. 16
Description: Female CD rats were used to test the effect of SEQ ID NO:3 on delayed transit induced by abdominal surgery and manual manipulation of the small intestine. Groups of at least nine rats underwent abdominal surgery under isoflurane anesthesia. Surgery consisted of laparotomy and 5 minutes of gentle manual intestinal massage. Following recovery from anesthesia, rats were dosed orally with either 10 μg/kg SEQ ID NO:3 or vehicle (20 mM Tris) in a volume of 300 μl. 1 hour after dosing, intestinal transit rate was measured. Animals were again dosed with 300 μl of the test article followed immediately by 500 μl of a charcoal meal (10% charcoal, 10% gum arabic in water). To calculate the distance of the small intestine traveled by the charcoal front, after 20 minutes, the total length of the intestine as well as the distance traveled from the stomach to the charcoal front were measured for each animal. Animals dosed with 10 μg/kg SEQ ID NO:3 experienced an increase in transit following abdominal surgery compared to animals dosed with vehicle alone (FIG. 16). Charcoal transit in SEQ ID NO:3 dosed animals was measured at 37.3+3.0% (mean+SEM) of the small intestine compared with vehicle at 24.7+1.4% (mean+SEM) of the small intestine.

chymotrypsin = chymotrypsin (Bos taurus, UniProt P00766); conditions: 37° C., up to 24 h
Description: The stability of SEQ ID NO:3 in the presence of several mammalian digestive enzymes was determined. SEQ ID NO:3 was exposed to a variety of in vitro conditions including digestive enzymes and low ph environments designed to simulate gastric fluid. SEQ ID NO:3 was incubated with chymotrypsin, trypsin, pepsin, aminopeptidase, carboxypeptidase A, and simulated gastric fluid (sgf) at ph 1.0. Samples were collected at 0, 3, and 24 h for all conditions except pepsin digestion and the SGF. For the latter two conditions, samples were obtained at 0, 1, and 3 h. Negative control samples were prepared for initial and final time points. A separate, positive activity control was run in parallel to SEQ ID NO:3. All samples were analyzed by LC/MS
500 μl samples of 0.01 mg/mL SEQ ID NO:3 and guanylin (Sigma-Aldrich, G116; positive control) were prepared in the chymotrypsin reaction buffer (100 mM Tris-HCl, 10 mM CaCl2, pH 7.5) in 2 mL eppendorf tubes. Zero and 24 h control samples were prepared by adding 5 μL of a 10 mM chymostatin (Sigma-Alrich, C7268; a chymotrypsin inhibitor) stock for a final concentration of 100 μM. All samples were incubated at 37° C. for 5 min. […] These standards were used to generate a standard curve for quantification of samples. […]

Structure (SMILES): C[C@@H]1NC(=O)[C@@H]2CCCN2C(=O)[C@H](CC(N)=O)NC(=O)[C@@H]2CSSC[C@H](N)C(=O)N[C@H]3CSSC[C@H](NC1=O)C(=O)N[C@@H]([C@@H](C)O)C(=O)NCC(=O)N[C@H](C(=O)N[C@@H](Cc1ccc(O)cc1)C(=O)O)CSSC[C@H](NC(=O)[C@H](Cc1ccc(O)cc1)NC(=O)[C@H](CCC(=O)O)NC3=O)C(=O)N2 [SEQ ID NO:3] (H-CCEYCCNPACTGCY-OH; disulfide 1-6, 2-10, 5-13; N-terminus and C-terminus assumed)
- abdominal response to colorectal distension (Male Wistar rats): Significant decreases in abdominal response
- basal visceral nociception (adult male Wistar rats; oral 3 μg/kg): no effects
- basal visceral nociception (adult male Wistar rats; oral 30 μg/kg, versus vehicle, FIG. 7e): increased basal visceral nociception
- Cleavage of SEQ ID NO: 3 by proteolytic substance [1]: not detectable
- Charcoal transit, of the small intestine (mean+SEM) (Female CD rats): 37.3+3.0%
- Cleavage of SEQ ID NO: 3 by proteolytic substance (chymotrypsin): not detectable
